Source: patent US20040152784A1, “Pharmaceutical composition and method for treatment of a urea cycle deficiency or sickle-cell anaemia” (Special Products Limited, priority 2002, published 2004)
Values after ≈ are worked out from the molar mass of the structure shown. “Also recorded” adds a separate entry of the source. Where two headings read alike, the source gives them in different places. Residues, ends and D or L forms follow the SMILES beside them.

Assays:
[1] = cited from earlier work
[2] = Bulk density and powder properties; type: physicochemical
Description: A pharmaceutical composition made by either of such methods typically has a bulk density of about 52.6 g/100 ml. […] A 25 g quantity of the granulated pharmaceutical composition will thus approximately half fill a 100 ml bottle.

Solubility in water = type: physicochemical; conditions: in water at 10° C.; read-out: maximum solubility of sodium 4-phenylbutyrate
[3] = system: bacterial and fungal growth; assay: Prevention of bacterial and fungal growth in the concentrated flavored solution without preservative; type: cell-based; conditions: 250 mg/ml, no preservative
Text: This may not apply at much lower concentrations. Therefore, the concentrated solution should be diluted by the patient's carer or guardian immediately before it is consumed by the patient. Thus the patient's carer or guardian should not prepare a jug of ready-to-use liquid to last a week or so.

[4] = cited from earlier work; for Stability / hydrolysis in water: in words

O=S(=O)([O-])NC1CCCCC1.[Na+] [Sodium cyclamate]
Solubility in Water ([1]; in words): Soluble

O=C([O-])CCCc1ccccc1.[Na+] [Sodium 4-phenylbutyrate]
bulk density [2]: about 26.4 g/100 ml
hygroscopicity [2]: somewhat hygroscopic
solubility (Solubility in water): 250 mg/mL
prevention of bacterial and fungal growth [3]: prevents such growth

COC(=O)[C@H](Cc1ccccc1)NC(=O)[C@@H](N)CC(=O)O [Aspartame] (H-Asp-Phe-OMe)
hydrolyses significantly to phenylalanine (non-sweet) within ([4]; in water): ≤ 6 months
Stability / hydrolysis in water [4]: hydrolyses to phenylalanine within a few weeks; also recorded: Hydrolyses in water
solubility [1]: 10 mg/mL (≈ 34 mM)

CC1=CC(=O)NS(=O)(=O)O1 [Potassium acesulfame]
Stability / hydrolysis in water [4]: Stable in water
Dissolution ([1]; in words): Fast dissolution
Solubility in Water ([1]; in words): Very soluble

O=C1NS(=O)(=O)c2ccccc21.[Na] [Sodium Saccharine]
Solubility in Water ([1]; in words): Very soluble

OC[C@@H](O)[C@@H](O[C@H]1O[C@H](CO)[C@@H](O)[C@H](O)[C@H]1O)[C@H](O)[C@@H](O)CO [Maltitol]
Solubility in Water ([1]; in words): Very soluble
